In US20190381014A1, “ISOQUINOLINONE COMPOUNDS AND USE THEREOF IN PREPARATION OF ANTIVIRAL DRUGS” (Ginkgo Pharma Co., Ltd., priority 2016, published 2019) one finds EC50 data, which are given here for 21 compounds.

In the test the test system is HBsAg. In words: HBsAg inhibition in HepG2.2.15 culture supernatant (ELISA). The conditions noted are these: read-out: Activity in HBsAg inhibition, EC50. The format is cell-based, HBV. Here is the method: Test method: HepG2.2.15 cell line was seeded into 96-well plates at 1.5×10^4 cells/well. On the following day, the cells were treated with a three-fold serial dilution series of the compounds at eight concentration points, and 2 duplicate wells were determined in parallel. The final DMSO concentration in the culture solution was 0.5%. On the fifth day, the culture solution was replaced with fresh solution containing the compounds. On the eighth day, the culture supernatant was collected and the HBsAg in the culture supernatant was detected by ELISA. The percent inhibition was calculated with respect to the blank control.
For orientation: In an ELISA, binding on a coated surface is turned into a signal by an enzyme label.

Where [1] appears, read: Hepatitis B virus, HepG2.2.15, 192 h.
[2] abbreviates: HepG2.2.15 cells, supernatant on day 8, ELISA.

Like-named read-outs stand apart in the source and are kept apart here.

A word on the EC50: it is the concentration giving half of the maximal effect. On to `COCCCOc1cc2c(cc1OC)-c1cc(=O)c(C(=O)O)cn1C(C(C)C)C2` (racemic) [A-rac, reference compound], for which the 50% effective concentration (EC50) under setting [1] is 8.21 nM.
On the same count and under the same terms, for `COc1cc2c(cc1O[C@H]1CCOC1)CC(C(C)C)n1cc(C(=O)O)c(=O)cc1-2` (mixture of isomers) [Compound I-1-rac, 6-isopropyl-10-methoxy-2-oxo-9-(((S)-tetrahydrofuran-3-yl)oxy)-6,7-dihydro-2H-pyrido[2,1-α]isoquinoline-3-carboxylic acid] the value was 5.74 nM.
On the same count and under the same terms, in the case of `COc1cc2c(cc1O[C@@H]1CCOC1)CC(C(C)C)n1cc(C(=O)O)c(=O)cc1-2` (mixture of isomers) [Compound I-2-rac, 6-isopropyl-10-methoxy-2-oxo-9-(((R)-tetrahydrofuran-3-yl)oxy)-6,7-dihydro-2H-pyrido[2,1-α]isoquinoline-3-carboxylic acid] it was 3.26 nM.
Regarding `COc1cc2c(cc1OC1CCOCC1)CC(C(C)C)n1cc(C(=O)O)c(=O)cc1-2` (racemic) [Compound I-3-rac, 6-isopropyl-10-methoxy-2-oxo-9-((tetrahydro-2H-pyran-4-yl)oxy)-6,7-dihydro-2H-pyrido[2,1-α]isoquinoline-3-carboxylic acid], the EC50 under setting [2] is 7.04 nM.
For `COc1cc2c(cc1OC1COC1)CC(C(C)C)n1cc(C(=O)O)c(=O)cc1-2` (racemic) [Compound I-4-rac, 6-isopropyl-10-methoxy-9-(oxetan-3-yloxy)-2-oxo-6,7-dihydro-2H-pyrido[2,1-α]isoquinoline-3-carboxylic acid], the EC50 under setting [1] was 3.62 nM.
Take `COc1cc2c(cc1O[C@H]1C[C@H](OC)C1)CC(C(C)C)n1cc(C(=O)O)c(=O)cc1-2` (mixture of isomers) [Compound I-5-rac, 6-isopropyl-10-methoxy-9-((1R,3S)-3-methoxycyclobutoxy)-2-oxo-6,7-dihydro-2H-pyrido[2,1-α]isoquinoline-3-carboxylic acid]: the EC50 under setting [1] amounted to 3.56 nM.
Still for that read-out and setting: for `COCC1(COc2cc3c(cc2OC)-c2cc(=O)c(C(=O)O)cn2C(C(C)C)C3)CC1` (racemic) [Compound I-6-rac, 6-isopropyl-10-methoxy-9-((1-(methoxymethyl)cyclopropyl)methoxy)-2-oxo-6,7-dihydro-2H-pyrido[2,1-α]isoquinoline-3-carboxylic acid] the value was 4.12 nM; for `COCC1(COc2cc3c(cc2OC)-c2cc(=O)c(C(=O)O)cn2C(C(C)C)C3)COC1` (racemic) [Compound I-7-rac, 6-isopropyl-10-methoxy-9-((3-(methoxymethyl)oxetan-3-yl)methoxy)-2-oxo-6,7-dihydro-2H-pyrido[2,1-α]isoquinoline-3-carboxylic acid], 4.68 nM; for `COc1cc2c(cc1OCC1CC(OC)C1)CC(C(C)C)n1cc(C(=O)O)c(=O)cc1-2` (racemic) [Compound I-8-rac, 6-isopropyl-10-methoxy-9-((3-methoxycyclobutyl)methoxy)-2-oxo-6,7-dihydro-2H-pyrido[2,1-α]isoquinoline-3-carboxylic acid], 5.59 nM.
The same measure, in the same setting: for `COc1cc2c(cc1OCCCC(C)=O)CC(C(C)C)n1cc(C(=O)O)c(=O)cc1-2` (racemic) [Compound I-9-rac, 6-isopropyl-10-methoxy-2-oxo-9-((4-oxopentyl)oxy)-6,7-dihydro-2H-pyrido[2,1-α]isoquinoline-3-carboxylic acid] the value was 3.71 nM; for `COc1cc2c(cc1OC1CCCC1)CC(C(C)C)n1cc(C(=O)O)c(=O)cc1-2` (racemic) [Compound I-10-rac, 9-(cyclopentyloxy)-6-isopropyl-10-methoxy-2-oxo-6,7-dihydro-2H-pyrido[2,1-α]isoquinoline-3-carboxylic acid], 3.78 nM; for `COc1cc2c(cc1C#CC1CC1)CC(C(C)C)n1cc(C(=O)O)c(=O)cc1-2` (racemic) [Compound I-11-rac, 9-(cyclopropylethynyl)-6-isopropyl-10-methoxy-2-oxo-6,7-dihydro-2H-pyrido[2,1-α]isoquinoline-3-carboxylic acid], 2.61 nM.
Same read-out and setting: in the case of `CC(C)C1Cc2cc(O[C@@H]3CCOC3)c(Cl)cc2-c2cc(=O)c(C(=O)O)cn21` (mixture of isomers) [Compound I-22-rac, 10-chloro-6-isopropyl-2-oxo-9-(((R)-tetrahydrofuran-3-yl)oxy)-6,7-dihydro-2H-pyrido [2,1-α]isoquinoline-3-carboxylic acid] it was 5.46 nM.
As for `CO[C@H]1C[C@H](Oc2cc3c(cc2Cl)-c2cc(=O)c(C(=O)O)cn2C(C(C)C)C3)C1` (mixture of isomers) [Compound I-23-rac, 10-chloro-6-isopropyl-9-((1R,3R)-3-methoxycyclobutoxy)-2-oxo-6,7-dihydro-2H-pyrido [2,1-α]isoquinoline-3-carboxylic acid], the concentration giving a half-maximal response (EC50) under setting [1] worked out at 6.83 nM.
For `COCC1(COc2cc3c(cc2Cl)-c2cc(=O)c(C(=O)O)cn2C(C(C)C)C3)CC1` (racemic) [Compound I-24-rac, 10-chloro-6-isopropyl-9-((1-(methoxymethyl)cyclopropyl)methoxy)-2-oxo-6,7-dihydro-2H-pyrido[2,1-α]isoquinoline-3-carboxylic acid], the EC50 under setting [2] was found to be 5.78 nM.
In the case of `COCC1(COc2cc3c(cc2Cl)-c2cc(=O)c(C(=O)O)cn2C(C(C)C)C3)COC1` (racemic) [Compound I-25-rac, 10-chloro-6-isopropyl-9-((3-(methoxymethyl)oxetan-3-yl)methoxy)-2-oxo-6,7-dihydro-2H-pyrido[2,1-α]isoquinoline-3-carboxylic acid], the EC50 under setting [1] was found to be 6.97 nM.
Still for that read-out and setting: in the case of `COC1CC(COc2cc3c(cc2Cl)-c2cc(=O)c(C(=O)O)cn2C(C(C)C)C3)C1` (racemic) [Compound I-26-rac, 10-chloro-6-isopropyl-9-((3-methoxycyclobutyl)methoxy)-2-oxo-6,7-dihydro-2H-pyrido[2,1-α]isoquinoline-3-carboxylic acid] it was 7.56 nM.
Turning to `COc1cc2c(cc1O[C@@H]1CCOC1)CC(C(C)(C)C)n1cc(C(=O)O)c(=O)cc1-2` (mixture of isomers) [Compound I-28-rac, 6-(tert-butyl)-10-methoxy-2-oxo-9-(((R)-tetrahydrofuran-3-yl)oxy)-6,7-dihydro-2H-pyrido[2,1-α]isoquinoline-3-carboxylic acid], the concentration for a half-maximal effect (EC50) under setting [2] was 5.78 nM.
Regarding `COc1cc2c(cc1O[C@H]1C[C@H](OC)C1)CC(C(C)(C)C)n1cc(C(=O)O)c(=O)cc1-2` (mixture of isomers) [Compound I-29-rac, 6-(tert-butyl)-10-methoxy-9-((1R,3R)-3-methoxycyclobutoxy)-2-oxo-6,7-dihydro-2H-pyrido[2,1-α]isoquinoline-3-carboxylic acid], under setting [1], the concentration for a half-maximal effect (EC50) amounted to 6.45 nM.
Take `COCC1(COc2cc3c(cc2OC)-c2cc(=O)c(C(=O)O)cn2C(C(C)(C)C)C3)CC1` (racemic) [Compound I-30-rac, 6-(tert-butyl)-10-methoxy-9-((1-(methoxymethyl)cyclopropyl)methoxy)-2-oxo-6,7-dihydro-2H-pyrido[2,1-α]isoquinoline-3-carboxylic acid]: the EC50 under setting [2] was 6.74 nM.
`COCC1(COc2cc3c(cc2OC)-c2cc(=O)c(C(=O)O)cn2C(C(C)(C)C)C3)COC1` (racemic) [Compound I-31-rac, 6-(tert-butyl)-10-methoxy-9-((3-(methoxymethyl)oxetan-3-yl)methoxy)-2-oxo-6,7-dihydro-2H-pyrido[2,1-α]isoquinoline-3-carboxylic acid]: the EC50 under setting [1] is 5.98 nM.
